Assay results as given in patent publication US20120178786A9, “Use of tetramic acid derivatives for controlling pests by drenching, drip application, or dip application” (priority 2006, published 2012).

Legend:
Format in all cases: in vivo
Thrips palmi = assay: Example 7: drench of cucumber plots, Abbott efficacy; settings: 20 mg active substance/plant, two applications at 10-day interval, I-4 240 SC, imidacloprid 100 SL
Procedure: Plots approximately 5 m^2 in size and containing cucumber plants are drenched, in three replications, against Thrips palmi with an active substance solution containing the active substance I-4 (cis isomer, formulation: 240 SC) and, by way of comparison, with the standard imidacloprid (100 SL) at the application rate stated, corresponding to an approximate water application rate of 300 l/ha. Two applications are effected at a 10-day interval. The test is evaluated in each case 9 days after the first treatment and 7 and 13 days after the second treatment by determining the efficacy with the aid of Abbott's formula.

[1] = system: Madeira mealybug (Phenacoccus madeirensis); assay: Example 13: drench of Coleus plants, Abbott efficacy; settings: 12 mg active substance/1 potting compost, 240 SC
Procedure: (§1) Coleus plants (approximate height 29 cm) in 6-inch pots which have been infected approximately 4 weeks before the beginning of the experiment with Madeira mealybug (Phenacoccus madeirensis) are drenched, in three replications, with an active substance solution containing the active substance I-4 (cis isomer, formulation: 240 SC) and, by way of comparison, with the commercial standard imidacloprid (240 SC) at the application rate stated. The greenhouse temperature is 29° C. The test is evaluated 7, 14, 21 and 28 days after the treatment by determining the efficacy with the aid of Abbott's formula.

[2] = system: Bemisia argentifolii (BEMIAR); assay: Example 8: drench of tropical sage plants, Henderson-Tilton efficacy against nymphs; settings: 12 mg active substance/1 potting compost, 240 SC
Procedure: Tropical sage plants cv. “scarlet sage” (approximate height 29 cm) in 6-inch pots and infested with Bemisia argentifolii (BEMIAR) are drenched, in three replications, with an active substance solution containing the active substance I-4 (cis isomer, formulation: 240 SC) and, by way of comparison, with the commercial standard imidacloprid (240 SC) at the application rate stated. The greenhouse temperature is 27-33° C. The test is evaluated 9, 13, 20, 34 and 41 days after the treatment by determining the activity against nymphs on the leaves with the aid of the Henderson-Tilton method.

[3] = system: citrus mealybug Pseudococcus citri (PSECCI); assay: Example 12: drench of Coleus plants, Abbott efficacy; settings: 240 SC
Procedure: as §1, with “treatment” for “beginning of the experiment”, “citrus” for “Madeira”, “Pseudococcus citri (PSECCI)” for “(Phenacoccus madeirensis)”

[4] = system: Trialeurodes vaporarium (TRIAVA); assay: Example 9: drench of courgette plots, Abbott efficacy; settings: four treatments of 10 mg active substance/plant at 10-day intervals, I-4 240 SC, imidacloprid 200 SL
Procedure: Plots approximately 12 m^2 in size and containing courgette plants (47 days after sowing) are drenched, in three replications, against Trialeurodes vaporarium (TRIAVA) with 100 ml of an active substance solution per plant, containing the active substance I-4 (cis isomer, formulation: 240 SC) and, by way of comparison, with the standard imidacloprid (200 SL) at the application rate stated. Four applications are effected at 10-day intervals. The test is evaluated 21, 31, 38 and 45 days after the 1st treatment by determining the efficacy with the aid of Abbott's formula.

Coccus viridis = assay: Example 11: drench of gardenia plants, Henderson-Tilton efficacy against nymphs; settings: 240 SC
Procedure: Gardenia plants cv. […] The greenhouse temperature is 27° C. The test is evaluated 7, 15, 21 and 35 days after the treatment by determining the activity against nymphs on the leaves with the aid of the Henderson-Tilton method.

[5] = system: Tetranychus urticae (TETRUR); assay: Example 5: drench of gardenia plants, Henderson-Tilton efficacy against nymphs; settings: 240 SC
Procedure: Gardenia plants cv. “Cape jasmine” in 6-inch pots which had been infected with Tetranychus urticae (TETRUR) two weeks before the beginning of the experiment are drenched, in three replications, with in each case 100 ml of active substance solution containing the active substance I-4 (cis isomer, formulation: 240 SC) and, by way of comparison, with the commercial standard imidacloprid (240 SC) at the application rate stated. The greenhouse temperature is 25-30° C. The test is evaluated 3, 15 and 22 days after the treatment by determining the activity against nymphs on the leaves with the aid of the Henderson-Tilton method.

[6] = system: Frankliniella occidentalis (FRANOC); assay: Example 6: drench of verbena plants, Henderson-Tilton efficacy against nymphs; settings: 12 mg active substance/1 potting compost, 240 SC
Procedure: Verbena plants (approximate height 13 cm) in 6-inch-pots which are infected with Frankliniella occidentalis (FRANOC) are drenched, in four replications, with an active substance solution containing the active substance I-4 (cis isomer, formulation: 240 SC) and, by way of comparison, with the commercial standard imidacloprid (240 SC) at the application rate stated. The greenhouse temperature is 27-33° C. The test is evaluated 7, 14, 21 and 28 days after the treatment by determining the activity against nymphs on the leaves with the aid of the Henderson-Tilton method.

[7] = 7 d after treatment, 24 mg active substance/1 potting compost
[8] = 21 d after treatment, 24 mg active substance/1 potting compost
[9] = 7 d after treatment, 12 mg active substance/1 potting compost
[10] = 21 d after treatment, 12 mg active substance/1 potting compost

| SMILES | Abbott efficacy (%) against THRIPL (Thrips palmi; 7 d after 2nd treatm.) [%] | Abbott efficacy (%) against THRIPL (Thrips palmi; 9 d after 1st treatm.) [%] | Abbott efficacy (%) against THRIPL (Thrips palmi; 13 d after 2nd treatm.) [%] | Abbott efficacy (%) against Phenacoccus madeirensis ([1]; 7 d after treatment) [%] | Abbott efficacy (%) against Phenacoccus madeirensis ([1]; 14 d after treatment) [%] | Abbott efficacy (%) against Phenacoccus madeirensis ([1]; 21 d after treatment) [%] | Abbott efficacy (%) against Phenacoccus madeirensis ([1]; 28 d after treatment) [%] | Henderson-Tilton efficacy (%) against Bemisia argentifolii ([2]; 9 d after treatment) [%] | Henderson-Tilton efficacy (%) against Bemisia argentifolii ([2]; 13 d after treatment) [%] | Henderson-Tilton efficacy (%) against Bemisia argentifolii ([2]; 20 d after treatment) [%] | Henderson-Tilton efficacy (%) against Bemisia argentifolii ([2]; 34 d after treatment) [%] | Henderson-Tilton efficacy (%) against Bemisia argentifolii ([2]; 41 d after treatment) [%] | Abbott efficacy (%) against TRIAVA ([4]; 21 d after 1st treatment) [%] | Abbott efficacy (%) against TRIAVA ([4]; 31 d after 1st treatment) [%] | Abbott efficacy (%) against TRIAVA ([4]; 38 d after 1st treatment) [%] | Abbott efficacy (%) against TRIAVA ([4]; 45 d after 1st treatment) [%] | Henderson-Tilton efficacy (%) against FRANOC ([6]; 7 d after treatment) [%] | Henderson-Tilton efficacy (%) against FRANOC ([6]; 14 d after treatment) [%] | Henderson-Tilton efficacy (%) against FRANOC ([6]; 21 d after treatment) [%] | Henderson-Tilton efficacy (%) against FRANOC ([6]; 28 d after treatment) [%] | also measured |
| --- | --- | --- | --- | --- | --- | --- | --- | --- | --- | --- | --- | --- | --- | --- | --- | --- | --- | --- | --- | --- | --- |
| CCOC(=O)OC1=C(c2cc(C)ccc2C)C(=O)N[C@]12CC[C@@H](OC)CC2 [Example I-4] | 64.1 | 66.3 | 80.0 | 84 | 89 | 99 | 98 | 99 | 100 | 98 | 100 | 100 | 57.5 | 85.9 | 88.5 | 85.7 | 100 | 100 | 90 | 100 | Abbott efficacy (%) against PSECCI [3, 7]: 63%; Abbott efficacy (%) against PSECCI ([3]; 14 d after treatment, 24 mg active substance/1 potting compost): 91%; Abbott efficacy (%) against PSECCI [3, 8]: 94%; Abbott efficacy (%) against PSECCI ([3]; 28 d after treatment, 24 mg active substance/1 potting compost): 93%; Henderson-Tilton efficacy (%) against Coccus viridis (Coccus viridis; [7]): 35%; Henderson-Tilton efficacy (%) against Coccus viridis (Coccus viridis; 15 d after treatment, 24 mg active substance/1 potting compost): 45%; Henderson-Tilton efficacy (%) against Coccus viridis (Coccus viridis; [8]): 69%; Henderson-Tilton efficacy (%) against Coccus viridis (Coccus viridis; 35 d after treatment, 24 mg active substance/1 potting compost): 100%; Henderson-Tilton efficacy (%) against TETRUR ([5]; 3 d after treatment, 77 mg active substance/1 potting compost): 39.0%; Henderson-Tilton efficacy (%) against TETRUR ([5]; 15 d after treatment, 77 mg active substance/1 potting compost): 89.1%; Henderson-Tilton efficacy (%) against TETRUR ([5]; 22 d after treatment, 77 mg active substance/1 potting compost): 100% |
| O=[N+]([O-])NC1=NCCN1Cc1ccc(Cl)nc1 [Imidacloprid, imidacloprid, reference compound] | 68.8 | 73.7 | 44.0 | 92 | 83 | 30 | 44 | 94 | 100 | 95 | 94 | 100 | 88.1 | 74.0 | 77.2 | 63.7 | 100 | 100 | 49 | 100 | Abbott efficacy (%) against PSECCI [3, 9]: 30%; Abbott efficacy (%) against PSECCI ([3]; 14 d after treatment, 12 mg active substance/1 potting compost): 35%; Abbott efficacy (%) against PSECCI [3, 10]: 19%; Abbott efficacy (%) against PSECCI ([3]; 28 d after treatment, 12 mg active substance/1 potting compost): 16%; Henderson-Tilton efficacy (%) against Coccus viridis (Coccus viridis; [9]): 45%; Henderson-Tilton efficacy (%) against Coccus viridis (Coccus viridis; 15 d after treatment, 12 mg active substance/1 potting compost): 55%; Henderson-Tilton efficacy (%) against Coccus viridis (Coccus viridis; [10]): 66%; Henderson-Tilton efficacy (%) against Coccus viridis (Coccus viridis; 35 d after treatment, 12 mg active substance/1 potting compost): 100%; Henderson-Tilton efficacy (%) against TETRUR ([5]; 3 d after treatment, 38.4 mg active substance/1 potting compost): 72.7%; Henderson-Tilton efficacy (%) against TETRUR ([5]; 15 d after treatment, 38.4 mg active substance/1 potting compost): 82.2%; Henderson-Tilton efficacy (%) against TETRUR ([5]; 22 d after treatment, 38.4 mg active substance/1 potting compost): 0% |
